Assay results taken from patent US7855290B2, “Pyridine derivatives and pyrimidine derivatives (3)” (Eisai R&D Management Co., Ltd., priority 2005, dated 2010).

Target: T1, HGFR (Homo sapiens, UniProt P08581)
T1 construct: endogenous in cells; host or cells: MKN-45 human gastric cancer cells
Experiment: Inhibitory activity against the HGFR autophosphorylation using ELISA (MKN-45 cells)
Assay type: cell-based
Settings: 1 hr with test substance
Procedure: Human gastric cancer cells (MKN-45) were suspended in a 1% FBS-containing RPMI1640 medium (purchased from Sigma). The cell suspension (1×10^5 cells/ml) was put in a 96-well plate for cell culture (purchased from NUNC, Production No. 167008) at 0.1 ml/well, and then cultured in a 5% CO2 incubator (37° C.) overnight. After the culture, from each well was removed the supernatant, followed by adding 0.05 ml of a 1% FBS-containing RPMI1640 medium. Then, the well was supplied with 0.05 ml of the test substance dissolved in dimethyl sulfoxide (diluted with a 1% FBS-containing RPMI1640 medium), followed by culturing in a 5% CO2 incubator (37° C.) for 1 hr. From each well was removed the supernatant, and each well was washed with 150 μl of PBS, followed by adding 100 μl of a lysis buffer (50 mM Hepes (pH 7.4), 150 mM NaCl, 10% (v/v) glycerol, 1% Triton X-100, 1.5 mM MgCl2, 1 mM EDTA (pH 8.0), 100 mM NaF, 1 mM PMSF, 10 μg/ml Aprotinin, 50 μg/ml Leupeptin, 1 μg/ml Pepstatin A and 1 mM Na3VO4). The plate was shaken at 4° C. for 1 hr to prepare the cell extract.
To a 96-well plate for ELISA (purchased from COSTAR, Production No. 3369) was added 50 μl of 60 mM bicarbonate buffer (pH 9.6) containing 50 μg/ml of an anti-phosphotyrosine antibody (PY20, purchased from Transduction Laboratory, Production No. P-11120). The plate was incubated at 4° C. overnight.
Each well of the plate prepared in 2. was washed three times with 200 μl of PBS, and supplied with 150 μl of 3% BSA/PBS, followed by incubating at room temperature for 2 hrs. Each well was washed three times with 200 μl of PBS, and supplied with 50 μl of the above cell extract, followed by incubating at 4° C. overnight. After the incubation, each well was washed three times with 250 μl of a washing solution (0.1% BSA, 20 mM Tris-HCl (pH 7.6), 137 mM NaCl, and 0.05% Tween-20), and supplied with 70 μl of anti-HGFR antibody (h-Met(C-12), purchased from Santa Cruz, Production No. sc-10) 2,000-fold diluted with a reaction solution (1% BSA, 20 mM Tris-HCl (pH 7.6), 137 mM NaCl and 0.05% Tween-20), followed by incubating at room temperature for 1 hr. The well was washed three times with 250 μl of the washing solution, and supplied with 70 μl of peroxidase-labelled anti-rabbit IgG antibody (purchased from Cell Signaling, Production No. 7074) 2,000-fold diluted with the reaction solution, followed by incubating at room temperature for 1 hr. Each well was washed three times with 250 μl of the washing solution, and supplied with 70 μl of TMB Membrane Peroxidase Substrate (purchased from Funakoshi, Production No. 50-5077-03), followed by incubating at room temperature for 10 min. Each well was supplied with 70 μl of 1 M phosphoric acid, and using the Plate Reader MTP-500 (Corona Electric), the absorbance of the well was instantly determined at a measurement wavelength of 450 nm. While defining the absorbance of a well supplied with the cell extract having no test substance as 100% HGFR autophosphorylation activity, and the absorbance of a well supplied with 50 μl of the lysis buffer as 0% HGFR autophosphorylation activity, the HGFR autophosphorylation activity (%) was calculated for each well.

T1 sequence (P08581 25-1390): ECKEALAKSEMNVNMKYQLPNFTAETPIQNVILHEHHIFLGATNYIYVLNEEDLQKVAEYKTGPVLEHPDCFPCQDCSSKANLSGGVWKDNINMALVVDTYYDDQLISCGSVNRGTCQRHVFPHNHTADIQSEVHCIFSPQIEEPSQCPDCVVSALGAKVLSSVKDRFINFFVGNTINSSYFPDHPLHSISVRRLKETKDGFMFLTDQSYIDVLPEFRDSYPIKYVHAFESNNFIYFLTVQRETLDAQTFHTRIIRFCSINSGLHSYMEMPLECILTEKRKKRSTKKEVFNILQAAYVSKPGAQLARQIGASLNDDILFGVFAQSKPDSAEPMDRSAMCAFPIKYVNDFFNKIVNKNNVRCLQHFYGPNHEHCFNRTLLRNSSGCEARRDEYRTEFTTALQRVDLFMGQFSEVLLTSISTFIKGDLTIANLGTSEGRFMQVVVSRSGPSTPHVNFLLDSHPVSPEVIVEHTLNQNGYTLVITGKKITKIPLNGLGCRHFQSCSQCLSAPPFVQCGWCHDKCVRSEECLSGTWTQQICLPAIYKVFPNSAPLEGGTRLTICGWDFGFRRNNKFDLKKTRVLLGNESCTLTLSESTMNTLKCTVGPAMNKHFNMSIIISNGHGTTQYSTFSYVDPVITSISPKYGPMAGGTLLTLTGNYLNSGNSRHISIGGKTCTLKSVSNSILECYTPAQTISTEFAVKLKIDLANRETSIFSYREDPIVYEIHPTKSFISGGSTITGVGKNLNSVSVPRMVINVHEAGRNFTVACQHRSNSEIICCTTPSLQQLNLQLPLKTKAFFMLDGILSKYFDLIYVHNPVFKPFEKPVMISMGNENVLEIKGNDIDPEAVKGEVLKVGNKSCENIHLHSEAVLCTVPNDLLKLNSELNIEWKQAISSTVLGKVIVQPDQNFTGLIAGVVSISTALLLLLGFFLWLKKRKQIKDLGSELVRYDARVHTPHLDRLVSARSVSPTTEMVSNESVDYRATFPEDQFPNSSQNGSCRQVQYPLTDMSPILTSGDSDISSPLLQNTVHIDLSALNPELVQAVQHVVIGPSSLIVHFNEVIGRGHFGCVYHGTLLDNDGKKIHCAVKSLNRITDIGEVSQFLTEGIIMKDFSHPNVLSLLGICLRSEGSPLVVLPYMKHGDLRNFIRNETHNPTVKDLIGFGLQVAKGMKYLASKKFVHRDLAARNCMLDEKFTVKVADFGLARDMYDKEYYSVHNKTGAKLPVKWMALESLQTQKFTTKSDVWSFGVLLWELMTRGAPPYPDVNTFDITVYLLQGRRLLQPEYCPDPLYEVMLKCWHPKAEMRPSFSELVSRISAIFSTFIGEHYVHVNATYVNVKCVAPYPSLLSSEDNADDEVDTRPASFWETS

Row | Compound | IC50
1 | CN1CCN(C(=O)Nc2cc(Oc3ccc(NC(=O)C4(C(=O)Nc5ccc(F)cc5)CC4)c(F)c3)ccn2)CC1 [Example 64, N-{2-Fluoro-4-[(2-{[(1-methylpiperazin-4-yl)carbonyl]amino}pyridin-4-yl)oxy]phenyl}-N′-(4-fluorophenyl)cyclopropane-1,1-dicarboxamide] | 20 nM
2 | COC1CN(C(=O)Nc2cc(Oc3ccc(NC(=O)C4(C(=O)Nc5ccc(F)cc5)CC4)cc3F)ccn2)C1 [Example 79] | 16 nM
3 | O=C(Nc1cc(Oc2ccc(NC(=O)C3(C(=O)Nc4ccc(F)cc4)CC3)c(F)c2)ccn1)N1CCC(CN2CCC2)CC1 [Example 37, N-(4-{[2-({[4-(Azetidin-1-ylmethyl)piperidin-1-yl]carbonyl}amino)pyridin-4-yl]oxy}-2-fluorophenyl)-N′-(4-fluorophenyl)cyclopropane-1,1-dicarboxamide] | 6.6 nM
4 | CN(C)C1CN(C2CCN(C(=O)Nc3cc(Oc4ccc(NC(=O)C5(C(=O)Nc6ccccc6)CC5)c(F)c4)ccn3)CC2)C1 [Example 55] | 16 nM
5 | CN(C)CCN1CCC(N(C)C(=O)Nc2cc(Oc3ccc(NC(=O)C4(C(=O)Nc5ccc(F)cc5)CC4)c(F)c3)ccn2)CC1 [Example 25, N-(4-{[2-({[{1-[2-(Dimethylamino)ethyl]piperidin-4-yl}(methyl)amino]carbonyl}amino)pyridin-4-yl]oxy}-2-fluorophenyl)-N′-(4-fluorophenyl)cyclopropane-1,1-dicarboxamide] | 4.6 nM
6 | O=C(Nc1cc(Oc2ccc(NC(=O)C3(C(=O)Nc4ccc(F)cc4)CC3)cc2F)ccn1)N1CCC(N2CCCC2)CC1 [Example 10, N-(4-Fluorophenyl)-N′-{3-fluoro-4-[(2-{[(4-pyrrolidin-1-ylpiperidin-1-yl)carbonyl]amino}pyridin-4-yl)oxy]phenyl}cyclopropane-1,1-dicarboxamide] | 21 nM
7 | CN(C)CCN1CCC(N(C)C(=O)Nc2cc(Oc3ccc(NC(=O)C4(C(=O)Nc5ccc(F)cc5)CC4)cc3)ccn2)CC1 [Example 39, N-(4-{[2-({[{1-[2-(Dimethylamino)ethyl]piperidin-4-yl}(methyl)amino]carbonyl}amino)pyridin-4-yl]oxy}phenyl)-N′-(4-fluorophenyl)cyclopropane-1,1-dicarboxamide] | 16 nM
8 | CN(C)C1CCN(C(=O)Nc2cc(Oc3cc(F)c(NC(=O)C4(C(=O)Nc5ccc(F)cc5)CC4)cc3F)ncn2)CC1 [Example 102, N-(4-{[4-({[4-(Dimethylamino)piperidin-1-yl]carbonyl}amino)pyrimidin-6-yl]oxy}-2,5-difluorophenyl)-N′-(4-fluorophenyl)cyclopropane-1,1-dicarboxamide] | 41 nM
9 | CN1CCC(N(C)C(=O)Nc2cc(Oc3ccc(NC(=O)C4(C(=O)Nc5ccccc5)CC4)c(F)c3)ccn2)CC1 [Example 48, N-(2-Fluoro-4-{[2-({[methyl(1-methylpiperidin-4-yl)amino]carbonyl}amino)pyridin-4-yl]oxy}phenyl)-N′-phenylcyclopropane-1,1-dicarboxamide] | 12 nM
10 | CN(C)C1CN(C(=O)Nc2cc(Oc3ccc(NC(=O)C4(C(=O)Nc5ccc(F)cc5)CC4)c(F)c3)ccn2)C1 [Example 76, N-(4-{[2-({[3-(Dimethylamino)azetidin-1-yl]carbonyl}amino)pyridin-4-yl]oxy}-2-fluorophenyl)-N′-(4-fluorophenyl)cyclopropane-1,1-dicarboxamide] | 30 nM
11 | O=C(Nc1cc(Oc2ccc(NC(=O)C3(C(=O)Nc4ccc(F)cc4)CC3)c(F)c2)ccn1)N1CC(CO)C1 [Example 75] | 13 nM
12 | CN1CCC(N(C)C(=O)Nc2cc(Oc3ccc(NC(=O)C4(C(=O)Nc5ccccc5F)CC4)c(F)c3)ccn2)CC1 [Example 57, N-(2-Fluoro-4-{[2-({[methyl(1-methylpiperidin-4-yl)amino]carbonyl}amino)pyridin-4-yl]oxy}phenyl)-N′-(2-fluorophenyl)cyclopropane-1,1-dicarboxamide] | 82 nM
13 | CN(C)C1CCN(C(=O)Nc2cc(Oc3ccc(NC(=O)C4(C(=O)Nc5ccc(F)cc5)CC4)c(F)c3)ccn2)CC1 [Example 18, N-(4-{[2-({[4-(Dimethylamino)piperidin-1-yl]carbonyl}amino)pyridin-4-yl]oxy}-2-fluorophenyl)-N′-(4-fluorophenyl)cyclopropane-1,1-dicarboxamide] | 39 nM
14 | O=C(Nc1cc(Oc2ccc(NC(=O)C3(C(=O)Nc4ccc(F)cc4)CC3)c(F)c2)ccn1)N1CC(N2CCC2)C1 [Example 73, N-[4-({2-[(1,3′-Biazetidin-1′-ylcarbonyl)amino]pyridin-4-yl}oxy)-2-fluorophenyl]-N′-(4-fluorophenyl)cyclopropane-1,1-dicarboxamide] | 8 nM
15 | CCN(CC)CCCNC(=O)Nc1cc(Oc2ccc(NC(=O)C3(C(=O)Nc4ccc(F)cc4)CC3)c(Cl)c2)ccn1 [Example 43, N-[2-Chloro-4-({2-[({[3-(diethylamino)propyl]amino}carbonyl)amino]pyridin-4-yl}oxy)phenyl]-N′-(4-fluorophenyl)cyclopropane-1,1-dicarboxamide] | 330 nM
16 | CN1CC(N2CCN(C(=O)Nc3cc(Oc4ccc(NC(=O)C5(C(=O)Nc6ccc(F)cc6)CC5)c(F)c4)ccn3)CC2)C1 [Example 17] | 15 nM
17 | CN(C)[C@@H]1CCN(C(=O)Nc2cc(Oc3ccc(NC(=O)C4(C(=O)Nc5ccc(F)cc5)CC4)cc3)ccn2)C1 [Example 42, N-(4-{[2-({[(3R)-3-(Dimethylamino)pyrrolidin-1-yl]carbonyl}amino)pyridin-4-yl]oxy}phenyl)-N′-(4-fluorophenyl)cyclopropane-1,1-dicarboxamide] | 42 nM
18 | CN1CCC(N(C)C(=O)Nc2cc(Oc3ccc(NC(=O)C4(C(=O)Nc5ccc(F)cc5)CC4)cc3F)ncn2)CC1 [Example 33, N-(3-Fluoro-4-{[6-({[methyl(1-methylpiperidin-4-yl)amino]carbonyl}amino)pyrimidin-4-yl]oxy}phenyl)-N′-(4-fluorophenyl)cyclopropane-1,1-dicarboxamide] | 25 nM
19 | O=C(Nc1cc(Oc2ccc(NC(=O)C3(C(=O)Nc4ccc(F)cc4)CC3)c(F)c2)ccn1)N1CCC1 [Example 61, N-[4-({2-[(Azetidin-1-ylcarbonyl)amino]pyridin-4-yl]oxy}-2-fluorophenyl]-N′-(4-fluorophenyl)cyclopropane-1,1-dicarboxamide] | 8 nM
20 | CN(C)[C@H]1CCN(C(=O)Nc2cc(Oc3ccc(NC(=O)C4(C(=O)Nc5ccccc5)CC4)c(F)c3)ccn2)C1 [Example 58, N-(4-{[2-({[(3S)-3-(Dimethylamino)pyrrolidin-1-yl]carbonyl}amino)pyridin-4-yl]oxy}-2-fluorophenyl)-N′-phenylcyclopropane-1,1-dicarboxamide] | 17 nM
21 | O=C(Nc1cc(Oc2ccc(NC(=O)C3(C(=O)Nc4ccc(F)cc4)CC3)c(F)c2)ccn1)N1CCC(N2CCNCC2)CC1 [Example 71, N-(4-Fluorophenyl)-N′-{2-fluoro-4-[(2-{[(4-piperazin-1-ylpiperidin-1-yl)carbonyl]amino}pyridin-4-yl)oxy]phenyl}cyclopropane-1,1-dicarboxamide] | 11 nM
22 | CN1CCN(C2CCN(C(=O)Nc3cc(Oc4ccc(NC(=O)C5(C(=O)Nc6ccc(F)cc6)CC5)cc4F)ccn3)CC2)CC1 [Example 20, N-(3-Fluoro-4-{[2-({[-4-(4-methylpiperazin-1-yl)piperidin-1-yl]-carbonyl}amino)pyridin-4-yl]oxy}phenyl)-N′-(4-fluorophenyl)cyclopropane-1,1-dicarboxamide] | 22 nM
23 | O=C(Nc1cc(Oc2ccc(NC(=O)C3(C(=O)Nc4ccc(F)cc4)CC3)c(F)c2)ccn1)N1CCCC1 [Example 62, N-(4-Fluorophenyl)-N′-[2-fluoro-4-({2-[(pyrrolidin-1-ylcarbonyl)amino]pyridin-4-yl}oxy)phenyl]cyclopropane-1,1-dicarboxamide] | 11 nM
